Results as given in patent US7416741B2, “Copper lowering treatment of inflammatory and fibrotic diseases” (The Regents of the University of Michigan, priority 2002, dated 2008).

Key:
[1] = Body weight and hematocrit in the bleomycin mouse model; assay type: in vivo; settings: for Weight / Hematocrit: sacrifice day 21; for protection against weight loss from bleomycin: Ex 1 Exp 2; for mean hematocrit: day 21
Protocol: Mice. Female CBA/J mice at 8-10 weeks of age were from the Jackson Laboratories (Bar Harbor, Me.). These mice weighed an average of 21.4 g at the start of experiments, with a standard deviation of 1.7 g.
Bleomycin treatment. This was undertaken on day 0 by endotracheal instillation through the oral cavity after exposure of the airway by pulling the tongue. Each mouse received 0.001 units of bleomycin (Bristol-Myers, Evansville, Ind.)/gm body weight in 30 μl of sterile saline, while control mice received an equal volume of sterile saline only.
TM treatment experiments. TM was given in 0.25 ml of water by intragastric gavage once daily, in the doses and times indicated in the various studies as described below.
There were four experimental groups of five to seven mice each. Group 1 received bleomycin, group 2 was a saline control, group 3 received bleomycin and TM therapy, and group 4 was a TM therapy control. The TM was given in a dose of 0.7 mg/mouse/day beginning 7 days prior to bleomycin treatment. During days 9 to 11 after bleomycin, the TM-treated mice received 1.2 mg of TM daily, to ensure adequate lowering of copper levels, and then received 0.7 mg daily for the duration of the study. The mice were sacrificed 21 days after bleomycin treatment.
In this experiment, the effect of TM at different doses after bleomycin administration was examined. Experimental groups of four bleomycin-treated and two to four control (non-bleomycin treated) mice were given varying doses of TM. Initially, All TM-treated mice received identical loading doses of 1.2 mg/mouse/day for 3 days (minus 5 to minus 3 days) prior to bleomycin administration. From that point on, groups of mice were given 0.3, 0.5, 0.7, or 0.9 mg of TM/mouse/day until sacrifice at day 21 after bleomycin treatment. A group of four bleomycin treated and a group of four non-bleomycin treated mice received no TM.
Three experiments were carried out. Experiment 1 comprised four groups of three mice each. Group 1 received bleomycin only, group 2 received bleomycin and TM therapy, group 3 received saline in the trachea rather than bleomycin, and group 4 received TM therapy only. The mice in groups 2 and 4 each received 1.2 mg of TM per day for four days prior to bleomycin, and then were given 0.9 mg TM per day until sacrifice at seven days after bleomycin.
Experiment 2 comprised four groups of five mice each. The four groups were assigned as in experiment 1 to bleomycin, bleomycin and TM, saline rather than bleomycin, and TM only. Groups 2 and 4 were started on TM five days after bleomycin treatment at a dose of 1.2 mg per day for four days, and then 0.9 mg per day until sacrifice at day 21.

[2] = system: bleomycin mouse model of pulmonary fibrosis; assay: Microscopic evaluation of the lungs (H&E, Masson-trichrome); assay type: in vivo
Text: Microscopic evaluation of the lungs. For morphological evaluation of fibrosis, lungs were inflated with formalin at the time of sacrifice, and after overnight fixation were embedded in paraffin and sections prepared for H&E staining as well as for Masson-trichrome staining for evaluation of collagen deposition as previously described (M Gharaee-Kermani et al., J. Leukoc. Biol., 64:657-666 [1998]).

α-smooth muscle actin = assay: α-Smooth muscle actin assay (ELISA) in lung homogenates; assay type: in vivo, mouse; settings: Ex 2 Exp 2; day 21; p=0.09
Protocol: α-Smooth muscle actin assay. De novo appearance of myofibroblasts is a hallmark of active fibrosis, and these cells are known as the primary source of interstitial collagen in pulmonary fibrosis (See e.g., K Zhang et al., Am. J. Pathol, 145:114-125 [1994]). Since α-smooth muscle actin is a marker of myofibroblast differentiation, the level of this protein in lung tissue homogenates was measured by ELISA as before (use same reference above for TGFβ assay by ELISA).

Con A mouse model = assay: Serum ALT in the Con A mouse model of liver damage; assay type: in vivo; settings: for Serum ALT / Serum ALT, Mean: Ex 5 Exp 1; for Serum ALT: one mouse; for Serum ALT, Mean: after 4th injection
Protocol: A study was carried out in a mouse model of concanavilin A (Con A) production of liver cirrhosis. There were four experimental groups of several mice each. […] The Con A was injected intravenously once weekly into mice (0.3 mg/mouse/week), and produced a hepatitis, which is manifested by an increasing level of alanine transaminase (ALT) enzymes in the blood. The TM was given once daily by […] in a dose of 0.7 mg/mouse/day beginning 7 days prior to ConA treatment. During days 9 to 11 after Con A, the TM-treated mice received 1.2 mg of TM daily, to ensure adequate lowering of copper levels, and then received 0.7 mg daily for the duration of the study. A blood sample was obtained 28 days after ConA treatment, and the mice were sacrificed on the same day. Serum alanine transaminase (ALT) was measured in Sigma-Frankel (SF) units, where one unit is the formation of 0.000482 umoles of glutamate/minute at pH 7.5 and 25 ° C.
This example describes additional TM treatment experiments in the model Concanavalin (Con A) mouse model of liver damage. As described previously, in the Con A mouse model, intravenously administered Con A produces an inflammatory reaction and cell damage in the animal's liver that is marked by the release hepatic transaminase enzymes, such as […] (ALT), into the blood. Several different experiments are reported in this example
Twenty-four hours after each of the first three injections, one mouse from each group was bled, and serum ALT measured. In this experiment, TM was started in the TM treated mice before the first Con A injection. After the fourth injection of Con A, all the mice were bled for ALT and Cp measurements and the experiment terminated. The Cp levels in TM treated mice were 25-50% of non-TM treated animals.
In a second experiment, Con A was given in weekly injections for four weeks, prior to any treatment with TM. The objective was to see if TM treatment would be useful after considerable organ damage had been allowed to occur. Then, one group of Con A treated animals were initiated on TM therapy.

rodent cancer models = settings: five different rodent cancer models; cited from earlier work

[SH-].[SH-].[S]=[Mo]=[S] [TM, tetrathiomolybdate]
Weight ([1]; Ex 1 Exp 1, Bleomycin/TM group, TM 0.7 mg/mouse/day gavage from 7 days before bleomycin): 21.2 ± 0.8 g
Hematocrit ([1]; Ex 1 Exp 1, Bleomycin/TM group): 39.7 ± 2.6
effect of TM alone on weight ([1]; Ex 1 Exp 1, TM alone (group 4)): tended to produce some weight loss
Weight ([1]; Ex 1 Exp 1, TM only group (no bleomycin), 0.7 mg/mouse/day): 20.4 ± 1.0 g
Hematocrit ([1]; Ex 1 Exp 1, TM only group): 44.1 ± 1.0
protection against bleomycin induced weight loss ([1]; Ex 1 Exp 1, bleomycin/TM group): protected against some of the bleomycin induced weight loss
protection against weight loss from bleomycin ([1]; 0.3 mg TM dose): only slightly protective
protection against weight loss from bleomycin ([1]; 0.5 mg TM dose): intermediately protective
protection against weight loss from bleomycin ([1]; 0.7 mg TM dose): intermediately protective
protection against weight loss from bleomycin ([1]; 0.9 mg TM dose): fully protective
mean weight in the bleomycin/TM group ([1]; Ex 2 Exp 1, sacrifice day 7): almost exactly the same as the saline control group
mean hematocrit ([1]; Ex 2 Exp 2, TM group): 43.8%
mean weight at the time of sacrifice ([1]; Ex 2 Exp 2, bleomycin/TM group, TM started 5 days after bleomycin): 19.6 g
mean hematocrit ([1]; Ex 2 Exp 2, bleomycin/TM group): 44.3%
collagen deposition (Masson-trichrome) ([2]; Ex 1 Exp 1, TM treated group vs bleomycin only): much less collagen deposition
lung histopathology (H&E): patches of fibrosis and inflammatory cells ([2]; Ex 1 Exp 1, TM-treated bleomycin animals vs bleomycin alone): substantially smaller with lesser degrees of cellular infiltration
histopathological evaluation of fibrotic lesions ([2]; Ex 1 Exp 2, increasing TM dose): diminution of fibrotic lesion size with increasing dose of TM
lung SMA (α-smooth muscle actin) protein levels, bleomycin-induced increase (α-smooth muscle actin): inhibited most of the increase
ConA induced increase of serum alanine transaminase (ALT) (Con A mouse model; Ex 4, TM 0.7 mg/mouse/day from 7 days before ConA, 28 days): almost completely inhibits
Serum ALT (Con A mouse model; Con A + TM, 24 h after 1st Con A injection): 52 Sigma-Frankel units
Serum ALT (Con A mouse model; Con A + TM, after 2nd injection): 50 Sigma-Frankel units
Serum ALT (Con A mouse model; Con A + TM, after 3rd injection): 63 Sigma-Frankel units
Serum ALT, Mean (Con A mouse model; Con A + TM, n 4): 74^2,3 Sigma-Frankel units
Serum ALT (Con A mouse model; TM only control, 24 h after 1st injection): 85 Sigma-Frankel units
Serum ALT (Con A mouse model; TM only control, after 2nd injection): 39 Sigma-Frankel units
Serum ALT (Con A mouse model; TM only control, after 3rd injection): 49 Sigma-Frankel units
Serum ALT, Mean (Con A mouse model; TM only control, n 3): 38 Sigma-Frankel units
ALT values (Con A mouse model; Ex 5 Exp 2, TM started after four weeks of weekly Con A, Con A continued): returned to normal
inhibition of tumor growth (rodent cancer models): dramatic effects on inhibition of tumor growth
